Data taken from ChEMBL document CHEMBL1124577, “LH-RH antagonists: design and synthesis of a novel series of peptidomimetics” (J Med Chem, 1989).

How the values were obtained:
[1] = biological target: T1, Gonadotropin-releasing hormone receptor (Rattus norvegicus, UniProt P30969); test: Binding affinity at Leutinizing releasing hormone receptor in rat pituitary using [125I]leuprolide as radioligand
T1 sequence (P30969 whole entry): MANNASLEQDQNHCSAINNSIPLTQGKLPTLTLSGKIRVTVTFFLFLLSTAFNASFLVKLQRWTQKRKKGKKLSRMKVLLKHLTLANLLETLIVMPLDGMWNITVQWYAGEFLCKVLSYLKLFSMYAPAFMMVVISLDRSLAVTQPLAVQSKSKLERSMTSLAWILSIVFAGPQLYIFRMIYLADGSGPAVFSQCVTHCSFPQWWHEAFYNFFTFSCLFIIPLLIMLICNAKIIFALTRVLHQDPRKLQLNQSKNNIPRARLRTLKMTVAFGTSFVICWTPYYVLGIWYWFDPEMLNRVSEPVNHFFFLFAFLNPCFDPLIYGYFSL

[2] = biological target: T1, Gonadotropin-releasing hormone receptor; test: Dissociation constant was determined in vitro using rat pituitary membranes and [125I]-leuprolide as radioligand, at concentration 3.16*10e-6 M; type: cell membranes
[3] = species: Rattus norvegicus; test: Antagonism of leuprolide-induced release of luteinizing hormone from rat pituitary cell; type: functional; details: Pituitary gland cell, read-out: pA2 (converted)
[4] = biological target: T1, Gonadotropin-releasing hormone receptor; test: Binding affinity at LH-RH receptor in rat pituitary using [125I]leuprolide as radioligand
[5] = biological target: T2, Gonadotropin-releasing hormone receptor (Rattus norvegicus) (UniProt P30969); test: Apparent receptor density at 3.16*10e-6 M concentration
T2 sequence (whole entry): T1 sequence (P30969 whole entry)

[6] = biological target: T1, Gonadotropin-releasing hormone receptor; test: Dissociation constant was determined in vitro using rat pituitary membranes, at concentration 1.0*10e-5 M; type: cell membranes
[7] = biological target: T2, Gonadotropin-releasing hormone receptor (Rattus norvegicus); test: Apparent receptor density at 3.16*10e-5 M concentration
[8] = biological target: T2, Gonadotropin-releasing hormone receptor (Rattus norvegicus); test: Apparent receptor density at 1.0*10e-5 M concentration
[9] = biological target: T1, Gonadotropin-releasing hormone receptor; test: Dissociation constant was determined in vitro using rat pituitary membranes and [125I]leuprolide as radioligand, at concentration 3.16*10e-5 M; type: cell membranes

`O=C(NC[C@H]1CO[C@](Cn2ccnc2)(c2ccc(Cl)cc2Cl)O1)[C@H](Cc1c[nH]cn1)NC(=O)[C@@H]1CCC(=O)N1C(=O)OCc1ccccc1` gave an IC50 [1] of 2000 nM.
`CCC(C)n1ncn(-c2ccc(N3CCN(c4ccc(OC[C@H]5CO[C@](Cn6ccnc6)(c6ccc(Cl)cc6Cl)O5)cc4)CC3)cc2)c1=O` (some centres not stated) showed an IC50 [1] of over 30000 nM.
With `OC[C@H]1CO[C@](Cn2ccnc2)(c2ccc(Cl)cc2Cl)O1` the IC50 [1] was over 30000 nM.
Work on `O=C1c2ccccc2C(=O)N1C[C@H]1CO[C@](Cn2ccnc2)(c2ccc(Cl)cc2Cl)O1` yielded an IC50 [1] of over 30000 nM.
`CC(=O)N1CCN(c2ccc(OCC3COC(Cn4ccnc4)(c4ccc(Cl)cc4Cl)O3)cc2)CC1` (configuration not stated) [KETOCONAZOLE] was tested, and the Kd [2] was 0.221 nM, the Kb [3] was 64600 nM and the IC50 [4] was 2000 nM. It also gave a Bmax [5] of 1.91 pmol/mg, a Kd [6] of 0.375 nM and a Bmax [7] of 1.6 pmol/mg. It also gave a Bmax [8] of 2.01 pmol/mg and a Kd [9] of 811 nM.
Work on `O=C(NC[C@H]1CO[C@](Cn2ccnc2)(c2ccc(Cl)cc2Cl)O1)C1CCC(=O)N1C(=O)OCc1ccccc1` (some centres not stated) yielded an IC50 [1] of over 30000 nM.
Compound `CC(C)(C)OC(=O)N[C@@H](Cc1c[nH]c2ccccc12)C(=O)N1CCC[C@H]1C(=O)N[C@@H](CC1=CNCN1)C(=O)NC[C@H]1CO[C@](Cn2ccnc2)(c2ccc(Cl)cc2Cl)O1` has a Kb [3] of 4570 nM and an IC50 [1] of 500 nM.
`Clc1ccc([C@@]2(Cn3ccnc3)OC[C@H](COc3ccccc3)O2)c(Cl)c1` was tested, and the IC50 [1] was over 30000 nM.
Work on `Clc1ccc([C@@]2(Cn3ccnc3)OC[C@H](CNCc3c[nH]c4ccccc34)O2)c(Cl)c1` yielded an IC50 [1] of over 30000 nM.
